In assay [1] the target is T1, LolB (Vibrio parahaemolyticus, UniProt Q87RN6).
T1 construct: Residues 26-212, N-terminal His6 tag
Briefly: intrinsic fluorescence quenching of purified LolB, one-site binding fit.

For assay [2], the target named is T1, LolB. The experiment in a line: intrinsic fluorescence quenching of purified LolB (Stern-Volmer Ksv; Kd only said to be micromolar). The class given is binding.

Experimental findings from article PMC9696335, “Natural Inhibitors Targeting the Localization of Lipoprotein System in Vibrio parahaemolyticus” (International Journal of Molecular Sciences, 2022) are described below.

SMILES strings stand for the structures.

T1 sequence (Q87RN6 17-203): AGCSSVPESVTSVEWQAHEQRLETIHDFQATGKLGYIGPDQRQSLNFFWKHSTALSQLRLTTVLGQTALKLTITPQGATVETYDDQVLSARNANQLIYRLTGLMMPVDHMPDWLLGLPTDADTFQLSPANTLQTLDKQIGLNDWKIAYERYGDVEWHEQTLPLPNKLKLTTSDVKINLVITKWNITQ

One may read the Kd as the equilibrium constant for the complex coming apart. A high value points to lower affinity. In turn, `Oc1cc(O)c2c(c1)O[C@@H](c1ccc(O)c(O)c1)[C@@H](O[C@]1(c3ccc(O)c(O)c3)Oc3cc(O)cc(O)c3[C@@H](O)[C@H]1O)C2` [procyanidin] came in with a Kd in assay [1] of 14.7 ± 4.65 µM.
Regarding `C=C1C[C@@]23CC[C@H]4[C@@](C)(CCC[C@@]4(C)C(=O)O[C@@H]4O[C@H](CO)[C@@H](O)[C@H](O)[C@H]4O)[C@@H]2CC[C@]1(O[C@@H]1O[C@H](CO)[C@@H](O)[C@H](O)[C@H]1O[C@@H]1O[C@H](CO)[C@@H](O)[C@H](O)[C@H]1O)C3` [stevioside], the “Ksv (10^4 L/mol)” value in assay [2] is 6.1570 10^4 L/mol.
Same read-out and setting: the same measure for `C[C@@H]1O[C@@H](OC[C@H]2O[C@@H](Oc3c(-c4ccc(O)c(O)c4)oc4cc(O)cc(O)c4c3=O)[C@H](O)[C@@H](O)[C@@H]2O)[C@H](O)[C@H](O)[C@H]1O` [rutin]: 8.7014 10^4 L/mol.
With `C[C@@H]1O[C@@H](OC[C@H]2O[C@@H](Oc3c(-c4ccc(OCCO)c(OCCO)c4)oc4cc(OCCO)cc(O)c4c3=O)[C@H](O)[C@@H](O)[C@@H]2O)[C@H](O)[C@H](O)[C@H]1O` [troxerutin], in assay [2], the “Ksv (10^4 L/mol)” value is 14.2317 10^4 L/mol.
